Values after ≈ are worked out from the molar mass of the structure shown.

One assay relates to E. coli strains. The experiment in a line: inhibition of E. coli strains on DMSal agar for selective growth of Salmonella (Example 16). The format is cell-based, Escherichia coli. The settings on record: DMSal agar. On the procedure:
The experiments were conducted as follows: nutrient agar medium was autoclaved and, on cooling (but prior to setting) filter-sterilised alaphosphin or AEP were incorporated at final concentrations of 1 mM, 2 mM, 5 mM and 10 mM, and the medium used to pour plates. Control plates were prepared using nutrient agar without alaphosphin or AEP. A single colony of the organism under test was inoculated in 10 ml of nutrient broth and incubated (without agitation) at 37° C. for 4 hours.
Trp-AEP was compared to alaphosphin (Ala-AEP) for selective growth of Salmonella strains on DMSal agar.

A further assay has as its system S. aureus OCC 102. The assay is described as follows: growth on nutrient agar, mixed culture with K. pneumoniae (Example 6). In kind it is cell-based, Staphylococcus aureus. The settings on record: S. aureus in mixed culture with K. pneumoniae. The source says: Example 1 was repeated, this time using a mixed culture of K. pneumoniae CMCC 3077 and S. aureus OCC 102. The results for growth in the presence of AEP or alaphosphin are shown in FIGS. 7 and 8 respectively: empty columns represent growth of S. aureus, the shaded columns represent growth of K. pneumoniae. […] Accordingly, there is a considerable alaphosphin concentration range over which S. aureus will readily grow whilst K. pneumoniae will be inhibited. Even if K. pneumoniae cells lyse due to the toxic effect of AEP released intracellularly, the AEP is not toxic for S. aureus at the concentrations involved.

The test system of assay [1] is Enterobacter sakazakii 1888. The experiment in a line: MIC in DMSal medium (Example 17). In kind it is cell-based. The settings on record: Cronobacter sakazakii, 1888.

For the molecule `C[C@H](N)C(=O)N[C@@H](C)P(=O)(O)O` [alaphosphin, L-alanyl-L-1-aminoethylphosphonic acid], in the assay with E. coli strains, the “concentration needed to inhibit the growth of E. coli strains” value is 1.5 µg/mL. The “concentration at which growth is inhibited” value in the assay on S. aureus OCC 102 came out at 10 mM. Also, the minimal inhibitory concentration (MIC) (commonly the least concentration at which growth counts as inhibited) in assay [1] was 0.075 µg/mL (≈ 0.382 µM).

The values above are taken from patent US20130189764A1, “SELECTIVE GROWTH MEDIA” (Oxide Limited, priority 2000, published 2013).
